Measured values as given in patent US11512053B2, “Arginine methyltransferase inhibitors and uses thereof” (priority 2013, dated 2022).
Counter-ions that a name gives are not always drawn. Like-named read-outs stand apart in the source and are kept apart here.

What was measured:
[1] = molecular target: full-length human PRMT1 isoform 1 (GST-tagged) (Homo sapiens, UniProt Q99873); experiment: PRMT1 Biochemical Assay (3H-SAM Flashplate, peptide substrate)
Outline: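 Tritiated methyl transfer from 3H-SAM onto biotinylated peptide, captured on streptavidin Flashplates and counted. Baculovirus-expressed GST-PRMT1 and compound were preincubated 30 min at room temperature in Bicine buffer pH 7.6. Cold SAM at 300 uM final ended the reaction.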

[2] = test system: mono-methyl arginine in RKO cells; experiment: RKO Methylation Assay, In Cell Western (ICW) for detection of mono-methyl arginine and DNA content; type: cell-based; conditions: for EC30: Homo sapiens, RKO, 72 h
Outline: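 RKO cells were treated with compound for 72 hours at 37 °C, methanol-fixed and stained overnight at 4 °C with anti-mono-methyl arginine (1:200), with DRAQ5 for DNA. Odyssey 800/700 nm intensity ratio was normalized to DMSO and 20 μM reference-compound controls. EC30 from triplicate nine-point curves.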

[3] = single experiment or average of multiple experiments
[4] = RKO cells, 72 hours compound incubation, mono-methyl arginine signal normalised to DNA content (DRAQ5), percent activation vs 20 μM reference compound, read-out: In Cell Western EC30
[5] = RKO cells, 72 hours incubation, mono-methyl arginine signal normalised to DNA content, single experiment or average of multiple experiments, read-out: In Cell Western EC30
[6] = RKO cells, 72 hours compound incubation, mono-methyl arginine signal normalised to DNA content (DRAQ5), percent activation vs 20 μM reference compound
[7] = read-out: In Cell Western EC30, RKO cells, 72 hours compound incubation, mono-methyl arginine signal normalised to DNA content (DRAQ5), percent activation vs 20 μM reference compound
[8] = read-out: In Cell Western EC30, RKO cells, 72 hours incubation, mono-methyl arginine signal normalised to DNA content, single experiment or average of multiple experiments

Chain of full-length human PRMT1 isoform 1 (GST-tagged) (Q99873 with tags, fused parts or gaps): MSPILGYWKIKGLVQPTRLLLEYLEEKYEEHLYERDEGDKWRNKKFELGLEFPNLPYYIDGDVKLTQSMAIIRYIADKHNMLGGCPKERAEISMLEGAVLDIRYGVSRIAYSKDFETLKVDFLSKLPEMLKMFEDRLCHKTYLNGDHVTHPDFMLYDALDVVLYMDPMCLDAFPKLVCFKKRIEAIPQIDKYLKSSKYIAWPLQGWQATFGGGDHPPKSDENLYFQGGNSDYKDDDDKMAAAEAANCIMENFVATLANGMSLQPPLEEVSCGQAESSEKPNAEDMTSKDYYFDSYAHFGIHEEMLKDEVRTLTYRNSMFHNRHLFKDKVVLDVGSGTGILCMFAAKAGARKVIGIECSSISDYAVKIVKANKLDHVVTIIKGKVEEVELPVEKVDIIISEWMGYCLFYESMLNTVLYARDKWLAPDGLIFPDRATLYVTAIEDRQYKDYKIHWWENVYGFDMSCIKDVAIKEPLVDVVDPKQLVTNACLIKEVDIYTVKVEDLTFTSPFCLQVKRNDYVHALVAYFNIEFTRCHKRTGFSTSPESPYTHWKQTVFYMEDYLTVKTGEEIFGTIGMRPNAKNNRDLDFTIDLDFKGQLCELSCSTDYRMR

IC50 [1] [nM] | IC50 [1, 3] [nM] | SMILES | EC30 [2, 5] [nM] | further results
< 100 | 7.4 | CNCCN(C)Cc1c[nH]nc1C1CCC2(CCCC2)CC1 [Compound 48] | 14 | EC30 [2, 4]: < 3000 nM
 | 110 | CN(CCN)Cc1c[nH]nc1C1CCCC1 [Compound 31] | > 20000 | In Cell Western EC30 [2, 6]: C (“C” indicates an EC30 > 12.01 μM)
< 100 | 16.7 | CNCCN(C)Cc1c[nH]nc1C1CCC(C)(C)C(C(=O)NCCC(C)C)C1 (stereo not drawn) [Compound 91] | 2060 | EC30 [2, 4]: < 3000 nM
< 100 | 4.3 | CNCCN(C)Cc1cnn(C)c1C1CCC2(CCCC2)CC1 [Compound 49] | 50 | 
 | 250 | CN(CCN)Cc1c[nH]nc1C1=CCCC1 [Compound 25] | 11800 | In Cell Western EC30 [2, 6]: B (“B” indicates an EC30 of 3.01-12.00 μM)
 | 10 | CN(CCN)Cc1c[nH]nc1/C=C/c1ccc(F)cc1F [Compound 13] |  | 
< 100 | 34.4 | CNCCN(C)Cc1c[nH]nc1C1CCC(C)(C)C(C(=O)NCC(C)C)C1 (stereo not drawn) [Compound 90] | 316 | EC30 [2, 4]: < 3000 nM
 | 10 | CNCCN(C)Cc1c[nH]nc1C#Cc1cccc(OC)c1 [Compound 1] |  | 
 |  | CNCCN(C)Cc1c[nH]nc1[C@H]1CC[C@@]2(CC1)CC(C)(C)CO2 [Compound 133, Methyl[2-(methylamino)ethyl]([3-[(5s,8s)-3,3-dimethyl-1-oxaspiro[4.5]decan-8-yl]-1H-pyrazol-4-yl]methyl)amine] |  | EC30 [2, 7]: < 3000 nM; EC30 [2, 8]: 43.8 nM
< 100 | 9.2 | CCC(CC)OC1CCC(c2n[nH]cc2CN(C)CCNC)CC1 (stereo not drawn) [Compound 70] | 50 | EC30 [2, 4]: < 3000 nM
 |  | CNCCN(C)Cc1c[nH]nc1C1CCNCC1 [Compound 42] | > 20000 | In Cell Western EC30 [2, 6]: C (“C” indicates an EC30 > 12.01 μM)
 | 50 | CN(CCN)Cc1c[nH]nc1/C=C/c1cc(F)cc(F)c1 [Compound 15] |  | 
1010 to 3000 | 1940 | CNCCN(C)Cc1c[nH]nc1C1CC(COC)C(C)(C)C(COC)C1 (stereo not drawn) [Compound 86] | 16.8 | EC30 [2, 4]: < 3000 nM
< 100 | 27.5 | CNCCN(C)Cc1c[nH]nc1C1CCC(COCCOC)(COCCOC)CC1 [Compound 60] | 2840 | EC30 [2, 4]: < 3000 nM
< 100 | 18.6 | CNCCN(C)Cc1c[nH]nc1C1CCC(COC)(COC)CC1 [Compound 57] | 25 | EC30 [2, 4]: < 3000 nM
 | 10 | CNCCN(C)Cc1c[nH]nc1/C=C/c1ccc(OC)cc1 [Compound 7] |  | 
< 100 | 12.8 | CNCCN(C)Cc1c[nH]nc1C1CCC(CCOC)CC1 (stereo not drawn) [Compound 55] | 63 | EC30 [2, 4]: < 3000 nM
 |  | CN(CCN)Cc1c[nH]nc1C1CCC1 [Compound 26] | > 20000 | In Cell Western EC30 [2, 6]: C (“C” indicates an EC30 > 12.01 μM)
 | 20 | Cc1ccc(/C=C/c2n[nH]cc2CN(C)CCN)cc1 [Compound 8] |  | 
< 100 | 9 | CNCCN(C)Cc1c[nH]nc1C1CCC2(CC1)CC(C)OC(C)C2 (stereo not drawn) [Compound 63] | 1090 | EC30 [2, 4]: < 3000 nM
 | 20 | CN(CCN)Cc1c[nH]nc1/C=C/c1cccc(C(F)(F)F)c1 [Compound 16] |  | 
< 100 | 19.6 | CNCCN(C)Cc1c[nH]nc1C1CC(C)(C)OC(C)(C)C1 [Compound 59] | 357 | 
 | 20 | CN(CCN)Cc1c[nH]nc1/C=C/c1cccc(F)c1 [Compound 20] |  | 
< 100 | 62.5 | CNCCN(C)Cc1c[nH]nc1[C@H]1CCC(C)(C)[C@@H](C(=O)NCCCOC)C1 [Compound 270] |  | 
 |  | CN(CCN)Cc1c[nH]nc1C(C)(C)C [Compound 27] | > 20000 | In Cell Western EC30 [2, 6]: C (“C” indicates an EC30 > 12.01 μM)

IC50 [1] [nM] | IC50 [1, 3] [nM] | SMILES | EC30 [2, 5] [nM] | further results
< 100 | 13.8 | CNCCN(C)Cc1c[nH]nc1C1CCC(OC(C)C)CC1 (stereo not drawn) [Compound 56] | 96 | 
 |  | CNCCN(C)Cc1c[nH]nc1[C@H]1CC[C@]2(CC1)CC(C)(C)CO2 [Compound 134, methyl[2-(methylamino)ethyl]([3-[(5r,8r)-3,3-dimethyl-1-oxaspiro[4.5]decan-8-yl]-1H-pyrazol-4-yl]methyl)amine] |  | EC30 [2, 7]: < 3000 nM; EC30 [2, 8]: 33.2 nM
< 100 | 9.4 | CNCCN(C)Cc1c[nH]nc1C1CCC2(CCCO2)CC1 (stereo not drawn) [Compound 51] | 52 | EC30 [2, 4]: < 3000 nM
< 100 | 51.3 | CNCCN(C)Cc1c[nH]nc1[C@@H]1CCC(C)(C)[C@@H](C(=O)NCCOC)C1 [Compound 269] |  | 
 | 20 | CN(CCN)Cc1n[nH]cc1C1CCCCC1 [Compound 33] | 3330 | In Cell Western EC30 [2, 6]: B (“B” indicates an EC30 of 3.01-12.00 μM)
< 100 | 10.5 | CNCCN(C)Cc1c[nH]nc1C1CCC(COC)CC1 (stereo not drawn) [Compound 53] | 17 | EC30 [2, 4]: < 3000 nM
 |  | CNCCN(C)Cc1c[nH]nc1C1CCN(CC(C)C)CC1 [Compound 39, N^1-((3-(1-isobutylpiperidin-4-yl)-1H-pyrazol-4-yl)methyl)-N^1,N^2-dimethylethane-1,2-diamine] | 500 | In Cell Western EC30 [2, 6]: A (“A” indicates an EC30 ≤ 3.00 μM)
 |  | CN(CCN)Cc1n[nH]cc1C1CCC(N2CCOCC2)CC1 (stereo not drawn) [Compound 44, N^1-methyl-N^1-((4-(4-morpholinocyclohexyl)-1H-pyrazol-3-yl)methyl)ethane-1,2-diamine] | 4570 | In Cell Western EC30 [2, 6]: B (“B” indicates an EC30 of 3.01-12.00 μM)
 | 190 | COC/C=C/c1n[nH]cc1CN(C)CCN [Compound 19] |  | 
 | 40 | CNCCN(C)Cc1c[nH]nc1/C=C/c1ccc(C(F)(F)F)cc1 [Compound 6] |  | 
 | 10 | CNCCN(C)Cc1c[nH]nc1/C=C/c1ccc(-c2ccccc2)cc1 [Compound 5] |  | 
< 100 | 12.4 | CNCCN(C)Cc1c[nH]nc1C1CCC(C)(C)[C@H](OCCCOC)C1 (stereo partly drawn) [Compound 272] |  | 
 |  | CN(CCN)Cc1c[nH]nc1C1CCC(C)(C)CC1 [Compound 38, N^1-((3-(4,4-dimethylcyclohexyl)-1H-pyrazol-4-yl)methyl)-N^1-methylethane-1,2-diamine] | 130 | In Cell Western EC30 [2, 6]: A (“A” indicates an EC30 ≤ 3.00 μM)
< 100 | 31.3 | CNCCN(C)Cc1c[nH]nc1C1CCC(C)(C)C(C(=O)NCCCOC)C1 (stereo not drawn) [Compound 93] |  | 
< 100 | 11.4 | CNCCN(C)Cc1c[nH]nc1C1CCC(C)(C)[C@H](OCC2CCOCC2)C1 (stereo partly drawn) [Compound 273, ({3-[(3R)-4,4-dimethyl-3-(oxan-4-ylmethoxy)cyclohexyl]-1H-pyrazol-4-yl}methyl)(methyl)[2-(methylamino)ethyl]amine] |  | 
< 100 | 37.1 | CNCCN(C)Cc1c[nH]nc1[C@@H]1CCC(C)(C)[C@@H](C(=O)NCCCOC)C1 [Compound 271, (1S,5R)—N-(3-methoxypropyl)-2,2-dimethyl-5-[4-({methyl[2-(methylamino)ethyl]amino}methyl)-1H-pyrazol-3-yl]cyclohexane-1-carboxamide] |  | 
 | 10 | COc1cccc(/C=C/c2n[nH]cc2CN(C)CCN)c1 [Compound 17] |  | 
 | 10 | COc1cc(/C=C/c2n[nH]cc2CN(C)CCN)cc(OC)c1 [Compound 11] |  | 
< 100 | 68.6 | CNCCN(C)Cc1c[nH]nc1[C@H]1CCC(C)(C)[C@@H](C(=O)NCCOC)C1 [Compound 268] |  | 
 |  | Cc1n[nH]cc1CN(C)CCN [Compound 30] | > 20000 | In Cell Western EC30 [2, 6]: C (“C” indicates an EC30 > 12.01 μM)
 |  | CC1CCC(c2c[nH]nc2CN(C)CCN)CC1 (stereo not drawn) [Compound 35] | 730 | In Cell Western EC30 [2, 6]: A (“A” indicates an EC30 ≤ 3.00 μM)
 | 90 | CN(CCN)Cc1c[nH]nc1/C=C/c1cc(C(F)(F)F)cc(C(F)(F)F)c1 [Compound 14] |  | 
 |  | CN(CCN)Cc1n[nH]cc1C1CCC(C)(C)CC1 [Compound 36] | 630 | In Cell Western EC30 [2, 6]: A (“A” indicates an EC30 ≤ 3.00 μM)
 |  | CCCc1n[nH]cc1CN(C)CCN [Compound 29] | > 20000 | In Cell Western EC30 [2, 6]: C (“C” indicates an EC30 > 12.01 μM)
 | 10 | CNCCN(C)Cc1c[nH]nc1C#Cc1ccc(C(C)(C)C)cc1 [Compound 2] |  | 

SMILES | IC50 [1] [nM] | IC50 [1, 3] [nM] | EC30 [2, 5] [nM] | further results
CC(C)Cc1n[nH]cc1CN(C)CCN [Compound 28, N^1-((3-iso-butyl-1H-pyrazol-4-yl)methyl)-N^1-methylethane-1,2-diamine] |  | 180 | 11100 | EC30 [2, 4]: 3010 to 12000 nM
CNCCN(C)Cc1ccnn1C1CCC2(CC1)CC(C)(C)CO2 (stereo not drawn) [Compound 274, trifluoroacetate] | < 100 | 8.19 |  | EC30 [2, 7]: < 3000 nM; EC30 [2, 8]: 16.8 nM
CNCCN(C)Cc1c[nH]nc1C#Cc1ccc(F)cc1 [Compound 4] |  | 20 |  | 
CN(CCN)Cc1c[nH]nc1C1CC1 [Compound 12] |  | 1580 |  | 
